# In PMC7475896, “Ruthenium(II) and Iridium(III) Complexes as Tested Materials for New Anticancer Agents” (Materials, 2020):
# Entries after “also recorded” stand apart in the source; their conditions may differ.
# Tests used:
# [1] = biological target: T1, human serum albumin (HSA) (Homo sapiens, UniProt P02768); test: HSA binding by UV-Vis spectroscopy; details: HSA 2 × 10^−5 M in Tris-HCl/NaCl buffer
# T1 construct: purchased Sigma-Aldrich Chemie GmbH (Steinheim, Germany)
# Method: (§1) Determination of log P values, and studies on the interactions of ruthenium(II) (1), iridium(III) complexes (2, 3) with CT-DNA, HSA and GSH, were performed according to the previous procedure published in the paper.
# (§2) Because plasma albumins can interfere with anticancer compounds and change their biological activity, especially their cytotoxicity effectiveness, it is important to obtain insight into interactions of the analyzed complexes with HSA as a plasma protein. The UV-Vis spectra of HSA with increasing amounts of complexes show increasing of HSA absorbance without any shift (Figure 13 a–c). […] To detect any changes of the microenvironment or the conformations of HSA caused by the analyzed complexes, CD spectroscopy was used (Figure 13e,f). […] The noticeable, spectral changes indicate a partial unfolding of the protein structure, leading to the loss of its stability.
# (§3) Figure 13 Changes in UV-Vis absorption spectra of HSA (2 × 10^−5 M) in Tris-HCl/NaCl buffer upon addition of 1 (a), 2 (b) and 3 (c) in different molar ratio and CD spectra of HSA incubated with 1 (d), 2 (e) and 3 (f) in different molar ratio.
# [2] = tested on: myelomonocytic leukaemia (MV-4-11) cell line; test: in vitro cytotoxicity, MTT assay, MV-4-11; type: cell-based
# Method: (§4) The cytotoxicity of the investigated complexes 1–3 was determined by microculture with sulforhodamine B SRB (all adherent cells) and MTT ([3-(4,5-dimethyl(thiazol-2-yl) -2,5-diphenyltetrazoliumbromide)]) (for cells in suspension (leukemia cells)) assays with the following three tumor cell lines: colorectal adenoma (LoVo), myelomonocytic leukemia (MV-4-11), and breast adenocarcinoma (MCF-7), as well as a healthy mouse fibroblast (BALB/3T3) cell line. The cytotoxicity of the compounds was measured using the methods described previously. […] The results for cisplatin, used as a test control, were presented in the form of IC50 value (this is the concentration of the compound causing the inhibition of cell proliferation of 50% of the cell population). The results were calculated from 2 to 3 independent experiments.
# [3] = tested on: colorectal adenoma (LoVo) cell line; test: in vitro cytotoxicity, SRB assay, LoVo; type: cell-based; details: concentration of 10 μg/mL
# Method: as §4
# [4] = biological target: T1, human serum albumin (HSA); test: HSA conformation by CD spectroscopy; type: binding; details: free HSA 56%
# Method: as §1, §2, §3
# [5] = lipophilicity (log P) determination; type: physicochemical
# Method: as §1
# [6] = in vitro cytotoxicity, SRB assay, normal BALB/3T3; type: cell-based, mouse; details: mouse, BALB/3T3 normal mouse fibroblast cells; compound concentration 10 μg/mL; normal cell line
# Method: as §4
# [7] = tested on: breast adenocarcinoma (MCF-7) cell line; test: in vitro cytotoxicity, SRB assay, MCF-7; type: cell-based; details: concentration of 10 μg/mL
# Method: as §4
# [8] = tested on: normal mouse fibroblast (BALB/3T3) cell line; test: in vitro cytotoxicity, SRB assay, normal BALB/3T3; type: cell-based; details: for Cell viability [%] BALB/3T3: compound concentration 10 μg/mL, normal cell line
# Method: as §4
# [9] = glutathione deactivation experiment (Ellman method); type: biochemical; details: after 28 h incubation
# Method: as §1
# Comparing similar data of cell viability and IC50 for both iridium(III) complexes with GSH deactivation results, some correlation was observed.
# [10] = catalytic oxidation of NADH to NAD+ (UV-Vis); type: biochemical; details: complex 1 µM, NADH 100 µM, 50% MeOH/50% H2O, 37 °C, 9 h
# Method: The reaction of analyzed complexes (1 µM) with NADH (100 µM) in 50% MeOH/50% H2O (V:V) was examined by UV-Vis spectroscopy at 37 °C after various time intervals (0.5–9 h). The turnover number (TON) was calculated from the difference in NADH concentration after 9 h divided by the concentration of analyzed iridium complexes. The concentration of NADH was obtained using the extinction coefficient ε339 = 6220 M^−1cm^−1.
# Figure 12 UV-Vis spectra for the catalytic oxidation of NADH (100 μM) to NAD^+ in the presence of complexes (1 μM) over a 9 h period in 50% MeOH/50% H2O (V:V) (inset: wavelength absorbance changes from 315-360 nm).
# [11] = tested on: CT-DNA; test: DNA melting test by 3D CD; type: binding; details: 100 μM CT-DNA, Tris-HCl/NaCl pH 7.2; free CT-DNA Tm 55.2 ± 0.7 °C
# Method: The melting profiles of DNA/complex mixtures were recorded on a Jasco J-815 spectropolarimeter (Kettenbrückengasse, Austria) equipped with a CDF-426S/15 Peltier temperature controller. CD melting experiments were performed using 100 μM CT DNA concentration, in the absence and presence of 100 equivalents of complexes (in Tris-HCl/NaCl buffer, pH 7.2). CD melting were performed at 5 °C/min heating rate in the 35–95 °C temperature range. Each spectrum was recorded in the 220–300 nm wavelength range, averaged over three scans and subtracting the buffer baseline. After each temperature change, the system was left to equilibrate for 3 min. From 3D data, we selected the proper wavelength (256 nm) and obtained a classic 2D melting profile (fraction folded vs. temperature). The melting temperatures (Tm) were mathematically calculated by using the curve fitting function in Origin 2020 software (OriginLab, Northampton, MA, USA). Tm values represent the melting temperature of the DNA with and without complexes.
# To solve the problem of the mode of iridium-DNA binding, covalent and non-covalent, DNA melting experiments were conducted. […] The Tm of the tested solution was determined as the transition midpoint of the melting curve by monitoring the maximum of the ellipticity and absorbance as a function of temperature ranging from 35 to 95 °C. […]
# [12] = tested on: normal mouse fibroblast (BALB/3T3) cell line; details: read-out: IC50 against normal BALB/3T3; cited from earlier work
# [13] = compound concentration 10 μg/mL
# T1 sequence (P02768 25-609): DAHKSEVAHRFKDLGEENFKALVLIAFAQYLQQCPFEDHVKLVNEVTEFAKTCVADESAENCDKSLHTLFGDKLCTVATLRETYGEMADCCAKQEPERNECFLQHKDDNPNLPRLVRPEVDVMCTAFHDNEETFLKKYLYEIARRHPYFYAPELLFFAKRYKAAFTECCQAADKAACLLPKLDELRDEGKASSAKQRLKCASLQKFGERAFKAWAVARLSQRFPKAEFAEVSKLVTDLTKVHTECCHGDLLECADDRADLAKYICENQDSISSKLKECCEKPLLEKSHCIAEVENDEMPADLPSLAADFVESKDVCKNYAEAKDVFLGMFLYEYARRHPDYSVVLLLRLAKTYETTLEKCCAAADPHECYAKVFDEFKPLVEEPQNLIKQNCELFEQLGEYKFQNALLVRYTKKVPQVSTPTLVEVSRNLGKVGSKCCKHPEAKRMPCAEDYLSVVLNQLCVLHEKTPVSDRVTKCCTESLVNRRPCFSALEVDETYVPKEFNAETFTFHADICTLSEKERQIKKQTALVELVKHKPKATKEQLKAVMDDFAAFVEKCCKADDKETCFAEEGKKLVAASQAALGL
Molecule,HSA binding constant [1],IC50 against MV-4-11 ([2]; MV-4-11 cell line) [µg/mL],"Cell viability [%] MV-4-11 [2, 13] [%]",α-helical structure of HSA under the influence of complex [4] [%],log P [5],Cell viability [%] BALB/3T3 [8] [%],concentration of unreacted GSH remaining [9] [µM],turnover number (TON) [10],decrease of melting temperature (Tm) of CT-DNA [11],other results
[(η^6-p-cymene)RuCl(py2CO)]PF6 [complex 1],3.22 × 10^5,49.8,83,51,−1.44 ± 0.11,,,,,"inhibition of cell proliferation, LoVo [3]: 1.4%"
"O=C(c1ccccn1)c1ccccn1 [py2CO, di-2-pyridylketone, reference compound]",,,,,,,,,,"IC50 ([2]; Homo sapiens, MV4-11, MV-4-11 cell line, read-out: IC50 against MV-4-11): 62.9 µg/mL; viability at 10 µg/mL ([2]; Homo sapiens, MV4-11, compound concentration 10 μg/mL): 98%; viability at 10 µg/mL [6]: 95.5%"
[(η^5-Cp)IrCl(py2CO)]PF6 [complex 2],1.52 × 10^5,40.2,68,52,−1.14 ± 0.06,100,37,3.3,approximately 0.5 °C,"inhibition of cell proliferation, MCF-7 [7]: 3.7%"
"N.N.[Cl][Pt][Cl] [cisplatin, reference compound]",,0.27,,,,,,,,
"[(η^6-p-cymene)RuCl(2,2′-PyBIm)]PF6",,,,,,,,,,IC50 [12]: 43.7 µM
NH4[IrCl4(py2CO)]·H2O [complex 3],6.54 × 10^4,35.8 ± 13.9,68,55,−0.30 ± 0.05,98.6,37,4.8,~8.5 °C,toxic effect against normal BALB/3T3 ([8]; result in words): without a toxic effect; also recorded: without any toxic effect
